Experimental data: PubChem BioAssay (NCI)
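Method: 48-hour compound exposure of cells in 96-well plates, five concentrations, linear interpolation of endpoints. At the GI50, growth is halved. The concentration for full growth arrest is given as TGI.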

Tests used:
Test in all cases: NCI anticancer screen, dose series, 48 h
TK-10 renal = tested on: TK-10 renal
NCI-H23 lung = tested on: NCI-H23 lung
M19-MEL melanoma = tested on: M19-MEL melanoma
OVCAR-3 ovarian = tested on: OVCAR-3 ovarian
COLO 205 colon = tested on: COLO 205 colon
SK-MEL-28 melanoma = tested on: SK-MEL-28 melanoma
KM12 colon = tested on: KM12 colon
UO-31 renal = tested on: UO-31 renal
SF-268 CNS = tested on: SF-268 CNS
SF-539 CNS = tested on: SF-539 CNS
UACC-62 melanoma = tested on: UACC-62 melanoma
SK-MEL-2 melanoma = tested on: SK-MEL-2 melanoma
M14 melanoma = tested on: M14 melanoma
HOP-92 NSCLC = tested on: HOP-92 NSCLC
LOX IMVI melanoma = tested on: LOX IMVI melanoma
SN12C renal = tested on: SN12C renal
CCRF-CEM leukemia = tested on: CCRF-CEM leukemia
NCI-H226 lung = tested on: NCI-H226 lung
HCC-2998 colon = tested on: HCC-2998 colon
HT29 colon = tested on: HT29 colon
A498 renal = tested on: A498 renal
DMS 273 small cell lung = tested on: DMS 273 small cell lung
NCI-H522 lung = tested on: NCI-H522 lung
SNB-78 CNS = tested on: SNB-78 CNS
ACHN renal = tested on: ACHN renal
MALME-3M melanoma = tested on: MALME-3M melanoma
EKVX NSCLC = tested on: EKVX NSCLC
OVCAR-8 ovarian = tested on: OVCAR-8 ovarian
SR leukemia = tested on: SR leukemia
OVCAR-4 ovarian = tested on: OVCAR-4 ovarian
OVCAR-5 ovarian = tested on: OVCAR-5 ovarian
MOLT-4 leukemia = tested on: MOLT-4 leukemia
SNB-19 CNS = tested on: SNB-19 CNS
SK-OV-3 ovarian = tested on: SK-OV-3 ovarian
DMS 114 small cell lung = tested on: DMS 114 small cell lung
SW-620 colon = tested on: SW-620 colon
XF 498 CNS = tested on: XF 498 CNS
RXF 393 renal = tested on: RXF 393 renal
786-0 renal = tested on: 786-0 renal
K-562 leukemia = tested on: K-562 leukemia
HCT-116 colon = tested on: HCT-116 colon
SNB-75 CNS = tested on: SNB-75 CNS
SF-295 CNS = tested on: SF-295 CNS
NCI-H460 lung = tested on: NCI-H460 lung
HOP-62 NSCLC = tested on: HOP-62 NSCLC
KM20L2 colon = tested on: KM20L2 colon
A549 NSCLC = tested on: A549 NSCLC
LXFL 529 NSCLC = tested on: LXFL 529 NSCLC
U251 CNS = tested on: U251 CNS
UACC-257 melanoma = tested on: UACC-257 melanoma
SK-MEL-5 melanoma = tested on: SK-MEL-5 melanoma
HOP-18 NSCLC = tested on: HOP-18 NSCLC
IGROV1 ovarian = tested on: IGROV1 ovarian
DLD-1 colon = tested on: DLD-1 colon
HCT-15 colon = tested on: HCT-15 colon
RPMI-8226 leukemia = tested on: RPMI-8226 leukemia
HL-60(TB) leukemia = tested on: HL-60(TB) leukemia

`CCC[CH2][Sn]([CH2]CCC)([O]C(=O)Cc1ccc(F)cc1)[O]C(=O)Cc1ccc(F)cc1` was tested, and the GI50 (TK-10 renal) was 1030 nM, the TGI (TK-10 renal) was 2210 nM and the GI50 (NCI-H23 lung) was 176 nM. For the same molecule, the TGI (NCI-H23 lung) was 1140 nM, the GI50 (M19-MEL melanoma) was 295 nM and the TGI (M19-MEL melanoma) was 1650 nM. The GI50 (OVCAR-3 ovarian) was 1270 nM, the TGI (OVCAR-3 ovarian) was 2540 nM and the GI50 (COLO 205 colon) was 679 nM. The TGI (COLO 205 colon) was 2000 nM, the GI50 (SK-MEL-28 melanoma) was 396 nM and the TGI (SK-MEL-28 melanoma) was 1680 nM. For the same molecule, the GI50 (KM12 colon) was 1710 nM, the TGI (KM12 colon) was 4030 nM and the GI50 (UO-31 renal) was 1430 nM. For the same molecule, the TGI (UO-31 renal) was 2750 nM, the GI50 (SF-268 CNS) was 450 nM and the TGI (SF-268 CNS) was 1750 nM. For the same molecule, the GI50 (SF-539 CNS) was 1060 nM, the TGI (SF-539 CNS) was 2280 nM and the GI50 (UACC-62 melanoma) was 629 nM. It also gave a TGI (UACC-62 melanoma) of 1890 nM, a GI50 (SK-MEL-2 melanoma) of 355 nM and a TGI (SK-MEL-2 melanoma) of 1480 nM. It also gave a GI50 (M14 melanoma) of 1060 nM, a TGI (M14 melanoma) of 2260 nM and a GI50 (HOP-92 NSCLC) of 1020 nM. For the same molecule, the TGI (HOP-92 NSCLC) was 2200 nM, the GI50 (LOX IMVI melanoma) was 279 nM and the TGI (LOX IMVI melanoma) was 1270 nM. It also gave a GI50 (SN12C renal) of 856 nM, a TGI (SN12C renal) of 2100 nM and a GI50 (CCRF-CEM leukemia) of 36.2 nM. For the same molecule, the TGI (CCRF-CEM leukemia) was 11900 nM, the GI50 (NCI-H226 lung) was 443 nM and the TGI (NCI-H226 lung) was 1850 nM. It also gave a GI50 (HCC-2998 colon) of 1230 nM, a TGI (HCC-2998 colon) of 2520 nM and a GI50 (HT29 colon) of 1610 nM. The TGI (HT29 colon) was 3680 nM, the GI50 (A498 renal) was 573 nM and the TGI (A498 renal) was 1860 nM. For the same molecule, the GI50 (DMS 273 small cell lung) was 1040 nM, the TGI (DMS 273 small cell lung) was 2220 nM and the GI50 (NCI-H522 lung) was 23.2 nM. The TGI (NCI-H522 lung) was 149 nM, the GI50 (SNB-78 CNS) was 284 nM and the TGI (SNB-78 CNS) was 1570 nM. For the same molecule, the GI50 (ACHN renal) was 756 nM, the TGI (ACHN renal) was 2010 nM and the GI50 (MALME-3M melanoma) was 240 nM. It also gave a TGI (MALME-3M melanoma) of 1350 nM, a GI50 (EKVX NSCLC) of 777 nM and a TGI (EKVX NSCLC) of 2090 nM. The GI50 (OVCAR-8 ovarian) was 917 nM, the TGI (OVCAR-8 ovarian) was 2130 nM and the GI50 (SR leukemia) was 196 nM. It also gave a TGI (SR leukemia) of 1860 nM, a GI50 (OVCAR-4 ovarian) of 1680 nM and a TGI (OVCAR-4 ovarian) of 3130 nM. For the same molecule, the GI50 (OVCAR-5 ovarian) was 1790 nM, the TGI (OVCAR-5 ovarian) was 3180 nM and the GI50 (MOLT-4 leukemia) was 124 nM. It also gave a TGI (MOLT-4 leukemia) of 796 nM, a GI50 (SNB-19 CNS) of 1360 nM and a TGI (SNB-19 CNS) of 2650 nM. The GI50 (SK-OV-3 ovarian) was 2930 nM, the TGI (SK-OV-3 ovarian) was 7330 nM and the GI50 (DMS 114 small cell lung) was 140 nM. For the same molecule, the TGI (DMS 114 small cell lung) was 393 nM, the GI50 (SW-620 colon) was 206 nM and the TGI (SW-620 colon) was 1130 nM. For the same molecule, the GI50 (XF 498 CNS) was 1080 nM, the TGI (XF 498 CNS) was 2290 nM and the GI50 (RXF 393 renal) was 145 nM. For the same molecule, the TGI (RXF 393 renal) was 695 nM, the GI50 (786-0 renal) was 505 nM and the TGI (786-0 renal) was 1720 nM. The GI50 (K-562 leukemia) was 53.5 nM, the TGI (K-562 leukemia) was 580 nM and the GI50 (HCT-116 colon) was 657 nM. For the same molecule, the TGI (HCT-116 colon) was 1970 nM, the GI50 (SNB-75 CNS) was 705 nM and the TGI (SNB-75 CNS) was 2100 nM. The GI50 (SF-295 CNS) was 1130 nM, the TGI (SF-295 CNS) was 2340 nM and the GI50 (NCI-H460 lung) was 2270 nM. It also gave a TGI (NCI-H460 lung) of 5850 nM, a GI50 (HOP-62 NSCLC) of 2380 nM and a TGI (HOP-62 NSCLC) of 4080 nM. The GI50 (KM20L2 colon) was 1880 nM, the TGI (KM20L2 colon) was 4690 nM and the GI50 (A549 NSCLC) was 7000 nM. The TGI (A549 NSCLC) was 19900 nM, the GI50 (LXFL 529 NSCLC) was 47.6 nM and the TGI (LXFL 529 NSCLC) was 202 nM. It also gave a GI50 (U251 CNS) of 361 nM, a TGI (U251 CNS) of 1540 nM and a GI50 (UACC-257 melanoma) of 603 nM. The TGI (UACC-257 melanoma) was 1990 nM, the GI50 (SK-MEL-5 melanoma) was 1080 nM and the TGI (SK-MEL-5 melanoma) was 2270 nM. The GI50 (HOP-18 NSCLC) was 1670 nM, the TGI (HOP-18 NSCLC) was 3050 nM and the GI50 (IGROV1 ovarian) was 1340 nM. It also gave a TGI (IGROV1 ovarian) of 2790 nM, a GI50 (DLD-1 colon) of 291 nM and a TGI (DLD-1 colon) of 1420 nM. The GI50 (HCT-15 colon) was 1040 nM and the TGI (HCT-15 colon) was 2230 nM.

`COc1ccc(-c2cc(=O)c3c(O)c(OC)c(O)c(OC)c3o2)cc1OC` was tested, and the TGI (NCI-H23 lung) was greater than 100000 nM, the TGI (M19-MEL melanoma) was greater than 100000 nM and the TGI (COLO 205 colon) was greater than 100000 nM. For the same molecule, the TGI (SK-MEL-28 melanoma) was greater than 100000 nM, the TGI (UO-31 renal) was greater than 100000 nM and the TGI (SF-268 CNS) was greater than 100000 nM. For the same molecule, the TGI (SF-539 CNS) was greater than 100000 nM, the TGI (UACC-62 melanoma) was greater than 100000 nM and the TGI (RPMI-8226 leukemia) was greater than 100000 nM. It also gave a TGI (M14 melanoma) greater than 100000 nM, a TGI (HOP-92 NSCLC) greater than 100000 nM and a TGI (SN12C renal) greater than 100000 nM. It also gave a TGI (CCRF-CEM leukemia) greater than 100000 nM, a TGI (NCI-H226 lung) greater than 100000 nM and a TGI (HCC-2998 colon) greater than 100000 nM. The TGI (HT29 colon) was greater than 100000 nM, the TGI (A498 renal) was greater than 100000 nM and the TGI (HL-60(TB) leukemia) was greater than 100000 nM. For the same molecule, the TGI (DMS 273 small cell lung) was greater than 100000 nM, the TGI (NCI-H522 lung) was 42800 nM and the TGI (SNB-78 CNS) was greater than 100000 nM. The TGI (ACHN renal) was greater than 100000 nM, the TGI (MALME-3M melanoma) was greater than 100000 nM and the TGI (EKVX NSCLC) was greater than 100000 nM. For the same molecule, the TGI (OVCAR-8 ovarian) was greater than 100000 nM, the TGI (SR leukemia) was greater than 100000 nM and the TGI (OVCAR-4 ovarian) was greater than 100000 nM. It also gave a TGI (MOLT-4 leukemia) greater than 100000 nM, a TGI (SNB-19 CNS) greater than 100000 nM and a TGI (SK-OV-3 ovarian) greater than 100000 nM. The TGI (DMS 114 small cell lung) was greater than 100000 nM, the TGI (SW-620 colon) was greater than 100000 nM and the TGI (XF 498 CNS) was greater than 100000 nM. The TGI (RXF 393 renal) was 55600 nM, the TGI (786-0 renal) was greater than 100000 nM and the TGI (K-562 leukemia) was greater than 100000 nM. The TGI (HCT-116 colon) was greater than 100000 nM, the TGI (SNB-75 CNS) was greater than 100000 nM and the TGI (SF-295 CNS) was greater than 100000 nM. The TGI (HOP-62 NSCLC) was greater than 100000 nM, the TGI (KM20L2 colon) was greater than 100000 nM and the TGI (A549 NSCLC) was greater than 100000 nM. The TGI (LXFL 529 NSCLC) was greater than 100000 nM, the TGI (U251 CNS) was greater than 100000 nM and the TGI (UACC-257 melanoma) was greater than 100000 nM. The TGI (SK-MEL-5 melanoma) was greater than 100000 nM, the TGI (HOP-18 NSCLC) was greater than 100000 nM and the TGI (IGROV1 ovarian) was greater than 100000 nM. It also gave a TGI (DLD-1 colon) greater than 100000 nM and a TGI (HCT-15 colon) greater than 100000 nM.
